Test results as given in ChEMBL document CHEMBL1201862, “PubChem BioAssay data set” (2004).
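Step 1: Grow cells in 96-well plates. Step 2: Expose to compound for 48 hours at 5 concentrations. Step 3: Interpolate endpoints linearly; if unreached, use highest concentration. The concentration for 50% growth inhibition is given as GI50.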 Active and inactive are the calls of the source. No stated cut-off is given here; in the data, active = GI50 up to about 1.1 µM and inactive = higher.

What was measured:
Assay in all cases: NCI anticancer screen, dose series, 48 h
ACHN = tested on: ACHN
SR = tested on: SR
MOLT-4 = tested on: MOLT-4
OVCAR-4 = tested on: OVCAR-4
A549 = tested on: A549
Hs-578T = tested on: Hs-578T
HCT-116 = tested on: HCT-116
PC-3 = tested on: PC-3
CCRF-CEM = tested on: CCRF-CEM
OVCAR-3 = tested on: OVCAR-3
UACC-62 = tested on: UACC-62
SK-MEL-5 = tested on: SK-MEL-5
HCT-15 = tested on: HCT-15
IGROV-1 = tested on: IGROV-1
HL-60 = tested on: HL-60
RXF 393 = tested on: RXF 393
K562 = tested on: K562
MDA-MB-435 = tested on: MDA-MB-435
A498 = tested on: A498
NCI-H460 = tested on: NCI-H460

Compound | GI50 (ACHN) | GI50 (SR) | GI50 (MOLT-4) | GI50 (OVCAR-4) | GI50 (A549) | GI50 (Hs-578T) | GI50 (HCT-116) | GI50 (PC-3) | GI50 (CCRF-CEM) | GI50 (OVCAR-3) | GI50 (UACC-62) | GI50 (SK-MEL-5) | GI50 (HCT-15) [µM] | GI50 (IGROV-1) | GI50 (HL-60) | GI50 (RXF 393) | GI50 (K562) | GI50 (MDA-MB-435) | GI50 (A498) | GI50 (NCI-H460)
O=C1NC(N2CCCC(CO)C2)=N/C1=C\c1cccs1 (centres undefined) | > 100 µM (inactive) | > 100 µM (inactive) | > 100 µM (inactive) | > 100 µM (inactive) | > 100 µM (inactive) | > 100 µM (inactive) | > 100 µM (inactive) | > 100 µM (inactive) | > 100 µM (inactive) | > 100 µM (inactive) | > 100 µM (inactive) | > 100 µM (inactive) | > 100 | > 100 µM (inactive) | > 100 µM (inactive) | > 100 µM (inactive) | > 100 µM (inactive) | > 100 µM (inactive) | – | –
CC1CCC(O)(C(C)(C(=O)O)c2ccccc2)CC1 (centres undefined) | > 100 µM (inactive) | – | 22 µM (inactive) | > 100 µM (inactive) | 42.2 µM (inactive) | 74 µM (inactive) | > 100 µM (inactive) | > 100 µM (inactive) | 82.8 µM (inactive) | > 100 µM (inactive) | > 100 µM (inactive) | > 100 µM (inactive) | > 100 | > 100 µM (inactive) | > 100 µM (inactive) | > 100 µM (inactive) | > 100 µM (inactive) | > 100 µM (inactive) | 68.4 µM (inactive) | 42.8 µM (inactive)
Cn1c(=O)n2n(c1=O)C([S+]([O-])c1ccccc1)C2 (centres undefined) | > 100 µM (inactive) | 38.3 µM (inactive) | 18.5 µM (inactive) | > 100 µM (inactive) | 65.2 µM (inactive) | > 100 µM (inactive) | > 100 µM (inactive) | 33.4 µM (inactive) | 20.2 µM (inactive) | > 100 µM (inactive) | > 100 µM (inactive) | > 100 µM (inactive) | > 100 | 32.1 µM (inactive) | – | > 100 µM (inactive) | > 100 µM (inactive) | > 100 µM (inactive) | – | > 100 µM (inactive)
CC(C)(C)OC(=O)NCCCCC(NC(=O)OCc1ccccc1)C(N)=O (centres undefined) | > 100 µM (inactive) | > 100 µM (inactive) | > 100 µM (inactive) | > 100 µM (inactive) | > 100 µM (inactive) | > 100 µM (inactive) | > 100 µM (inactive) | > 100 µM (inactive) | > 100 µM (inactive) | > 100 µM (inactive) | > 100 µM (inactive) | 58.3 µM (inactive) | > 100 | > 100 µM (inactive) | > 100 µM (inactive) | > 100 µM (inactive) | > 100 µM (inactive) | > 100 µM (inactive) | – | > 100 µM (inactive)
COc1ccc(C2(O)C(S(=O)(=O)c3ccc(C)cc3)=Cc3ccc(OC)cc32)cc1 (centres undefined) | 37.4 µM (inactive) | > 100 µM (inactive) | > 100 µM (inactive) | – | > 100 µM (inactive) | 23.6 µM (inactive) | > 100 µM (inactive) | 53.8 µM (inactive) | > 100 µM (inactive) | – | – | > 100 µM (inactive) | > 100 | > 100 µM (inactive) | 22 µM (inactive) | – | > 100 µM (inactive) | > 100 µM (inactive) | 44.5 µM (inactive) | > 100 µM (inactive)
OCC1C(OCc2ccccc2)C(OCc2ccccc2)C(OCc2ccccc2)CN1Cc1ccccc1 (centres undefined) | 3.38 µM (inactive) | 8.83 µM (inactive) | 7.62 µM (inactive) | 46.7 µM (inactive) | 18.7 µM (inactive) | 24.6 µM (inactive) | 17.3 µM (inactive) | 13 µM (inactive) | 28.8 µM (inactive) | 47.5 µM (inactive) | > 100 µM (inactive) | – | 30.5 | 35.5 µM (inactive) | – | 17.4 µM (inactive) | 16.3 µM (inactive) | 24.8 µM (inactive) | – | 14.5 µM (inactive)
NC(=O)c1cn(C2OC(CO)C(O)C2O)c2nc[n+]([O-])c(N)c12 (centres undefined) | 0.0351 µM (active) | 0.0509 µM (active) | 0.104 µM (active) | 0.201 µM (active) | 0.285 µM (active) | 0.951 µM (active) | 0.0206 µM (active) | 0.178 µM (active) | 0.1 µM (active) | 0.125 µM (active) | 0.12 µM (active) | 0.0333 µM (active) | 0.0735 | 1.05 µM (active) | – | 0.564 µM (active) | 0.34 µM (active) | 0.167 µM (active) | – | 0.446 µM (active)
C=CCOn1c(C=C)nc2c(C)cccc21 | 2.62 µM (inactive) | 2.46 µM (inactive) | 3.64 µM (inactive) | 8.89 µM (inactive) | 3.38 µM (inactive) | 4.98 µM (inactive) | 2.01 µM (inactive) | 3.08 µM (inactive) | 1.33 µM (inactive) | 2.48 µM (inactive) | 2.56 µM (inactive) | 3.89 µM (inactive) | 3.07 | 7.35 µM (inactive) | 1.98 µM (inactive) | – | 3.57 µM (inactive) | 1.63 µM (inactive) | 5.66 µM (inactive) | 2.32 µM (inactive)
